# According to the kinase profiling compilation of Christmann-Franck et al. (2016):
# What was measured:
# Test in all cases: KINOMEscan competition binding
# Conditions in all cases: compound 10.0 µM
# DCLK2 (human) = DCLK2 (human) (UniProt Q8N568)
# PRKAA2 (human) = PRKAA2 (human) (UniProt P54646)
# MYO3B (human) = MYO3B (human) (UniProt Q8WXR4)
# CLK1 (human) = CLK1 (human) (UniProt P49759)
# MAP3K13 (human) = MAP3K13 (human) (UniProt O43283)
# SRC (human) = SRC (human) (UniProt P12931)
# TESK1 (human) = TESK1 (human) (UniProt Q15569)
# GRK7 (human) = GRK7 (human) (UniProt Q8WTQ7)
# ULK3 (human) = ULK3 (human) (UniProt Q6PHR2)
# MST1R (human) = MST1R (human) (UniProt Q04912)
# TNNI3K (human) = TNNI3K (human) (UniProt Q59H18)
# LRRK2 (human) = LRRK2 (human) (UniProt Q5S007)
# Sequence of LRRK2 (human) (Q5S007 whole entry, looked up): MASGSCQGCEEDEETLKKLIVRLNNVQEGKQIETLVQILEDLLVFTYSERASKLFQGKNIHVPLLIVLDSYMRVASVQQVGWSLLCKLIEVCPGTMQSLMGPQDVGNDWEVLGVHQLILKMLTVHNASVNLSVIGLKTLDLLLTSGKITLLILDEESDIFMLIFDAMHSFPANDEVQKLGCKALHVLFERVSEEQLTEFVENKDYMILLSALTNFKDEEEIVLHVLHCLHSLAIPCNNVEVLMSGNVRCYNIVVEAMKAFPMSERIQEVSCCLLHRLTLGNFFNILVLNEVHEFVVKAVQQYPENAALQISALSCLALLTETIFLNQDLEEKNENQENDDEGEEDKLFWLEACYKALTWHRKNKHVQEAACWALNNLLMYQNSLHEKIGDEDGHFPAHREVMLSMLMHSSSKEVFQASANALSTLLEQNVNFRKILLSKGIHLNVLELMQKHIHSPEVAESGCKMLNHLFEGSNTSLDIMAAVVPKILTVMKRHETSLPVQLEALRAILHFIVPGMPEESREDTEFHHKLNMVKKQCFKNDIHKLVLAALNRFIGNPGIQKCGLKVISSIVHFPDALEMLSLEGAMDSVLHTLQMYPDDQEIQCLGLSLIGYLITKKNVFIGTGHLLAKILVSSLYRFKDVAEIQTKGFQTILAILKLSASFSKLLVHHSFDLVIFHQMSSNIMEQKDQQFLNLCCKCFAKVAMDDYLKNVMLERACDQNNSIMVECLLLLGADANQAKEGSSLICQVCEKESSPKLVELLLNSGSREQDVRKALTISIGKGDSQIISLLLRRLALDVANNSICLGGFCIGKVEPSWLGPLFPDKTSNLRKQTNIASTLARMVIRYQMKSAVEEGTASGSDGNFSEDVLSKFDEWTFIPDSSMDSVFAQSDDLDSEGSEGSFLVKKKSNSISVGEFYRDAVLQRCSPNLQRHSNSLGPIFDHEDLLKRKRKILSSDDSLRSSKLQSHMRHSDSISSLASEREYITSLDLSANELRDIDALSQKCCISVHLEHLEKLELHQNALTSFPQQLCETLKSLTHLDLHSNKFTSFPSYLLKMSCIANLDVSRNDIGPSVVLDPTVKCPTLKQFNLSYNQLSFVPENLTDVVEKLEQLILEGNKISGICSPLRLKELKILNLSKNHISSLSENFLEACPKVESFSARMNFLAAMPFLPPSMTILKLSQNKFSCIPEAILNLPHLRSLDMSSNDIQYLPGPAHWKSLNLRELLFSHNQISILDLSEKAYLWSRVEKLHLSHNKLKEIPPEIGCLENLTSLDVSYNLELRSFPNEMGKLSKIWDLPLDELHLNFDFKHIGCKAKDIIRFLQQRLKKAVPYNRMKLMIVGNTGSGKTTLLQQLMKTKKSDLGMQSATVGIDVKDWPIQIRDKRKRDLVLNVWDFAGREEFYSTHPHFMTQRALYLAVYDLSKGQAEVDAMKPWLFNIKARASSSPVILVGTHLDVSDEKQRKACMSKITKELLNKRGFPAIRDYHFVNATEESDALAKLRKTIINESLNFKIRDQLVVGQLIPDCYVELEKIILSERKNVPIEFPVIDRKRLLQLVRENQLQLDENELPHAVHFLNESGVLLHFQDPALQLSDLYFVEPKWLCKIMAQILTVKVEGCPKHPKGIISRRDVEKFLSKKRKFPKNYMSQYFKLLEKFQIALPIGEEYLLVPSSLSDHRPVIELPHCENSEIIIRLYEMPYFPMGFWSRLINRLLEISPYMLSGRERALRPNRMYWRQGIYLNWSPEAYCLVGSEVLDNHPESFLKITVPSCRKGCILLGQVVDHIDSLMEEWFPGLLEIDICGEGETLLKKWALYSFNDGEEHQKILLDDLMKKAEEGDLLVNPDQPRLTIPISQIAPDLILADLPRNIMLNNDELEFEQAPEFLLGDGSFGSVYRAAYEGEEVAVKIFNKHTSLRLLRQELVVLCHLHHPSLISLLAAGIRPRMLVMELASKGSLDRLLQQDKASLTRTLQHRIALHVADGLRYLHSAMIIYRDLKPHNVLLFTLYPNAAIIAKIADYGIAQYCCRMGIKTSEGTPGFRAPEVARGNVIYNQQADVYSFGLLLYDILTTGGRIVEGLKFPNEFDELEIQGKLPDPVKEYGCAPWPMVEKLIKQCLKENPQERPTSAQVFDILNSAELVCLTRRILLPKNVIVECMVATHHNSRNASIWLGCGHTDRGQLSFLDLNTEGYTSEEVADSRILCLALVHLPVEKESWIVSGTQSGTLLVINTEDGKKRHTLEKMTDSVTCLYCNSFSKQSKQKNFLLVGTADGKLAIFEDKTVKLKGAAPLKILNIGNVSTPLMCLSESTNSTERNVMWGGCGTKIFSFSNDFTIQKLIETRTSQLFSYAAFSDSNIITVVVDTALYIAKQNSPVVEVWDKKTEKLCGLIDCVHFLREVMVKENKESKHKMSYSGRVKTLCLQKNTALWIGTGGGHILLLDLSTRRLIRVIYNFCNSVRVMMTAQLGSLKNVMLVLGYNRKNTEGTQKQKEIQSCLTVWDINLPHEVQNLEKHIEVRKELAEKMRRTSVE
# ACVR2B (human) = ACVR2B (human) (UniProt Q13705)
# AXL (human) = AXL (human) (UniProt P30530)
# PIP4K2C (human) = PIP4K2C (human) (UniProt Q8TBX8)
# Sequence of PIP4K2C (human) (Q8TBX8 whole entry, looked up): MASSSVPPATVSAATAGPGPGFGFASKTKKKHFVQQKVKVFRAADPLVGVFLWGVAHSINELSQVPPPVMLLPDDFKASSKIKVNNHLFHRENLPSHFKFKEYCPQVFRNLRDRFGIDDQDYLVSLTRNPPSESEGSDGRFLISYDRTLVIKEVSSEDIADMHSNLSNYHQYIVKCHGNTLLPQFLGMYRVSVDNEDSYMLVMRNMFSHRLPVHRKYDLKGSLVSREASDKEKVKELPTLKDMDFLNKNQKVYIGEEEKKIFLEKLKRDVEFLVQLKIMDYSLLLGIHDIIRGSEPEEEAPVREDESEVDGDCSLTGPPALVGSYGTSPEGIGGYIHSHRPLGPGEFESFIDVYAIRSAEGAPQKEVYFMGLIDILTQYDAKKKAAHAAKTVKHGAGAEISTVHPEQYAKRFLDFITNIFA
# PRKACB (human) = PRKACB (human) (UniProt P22694)
# NIM1 (human) = NIM1 (human) (UniProt Q8IY84)
# PTK6 (human) = PTK6 (human) (UniProt Q13882)
# CDKL3 (human) = CDKL3 (human) (UniProt Q8IVW4)
# STK17A (human) = STK17A (human) (UniProt Q9UEE5)
# FYN (human) = FYN (human) (UniProt P06241)
# SYK (human) = SYK (human) (UniProt P43405)
# WEE2 (human) = WEE2 (human) (UniProt P0C1S8)
# MAST1 (human) = MAST1 (human) (UniProt Q9Y2H9)
# PIK3C2B (human) = PIK3C2B (human) (UniProt O00750)
# CSNK1D (human) = CSNK1D (human) (UniProt P48730)
# Sequence of CSNK1D (human) (P48730 whole entry, looked up): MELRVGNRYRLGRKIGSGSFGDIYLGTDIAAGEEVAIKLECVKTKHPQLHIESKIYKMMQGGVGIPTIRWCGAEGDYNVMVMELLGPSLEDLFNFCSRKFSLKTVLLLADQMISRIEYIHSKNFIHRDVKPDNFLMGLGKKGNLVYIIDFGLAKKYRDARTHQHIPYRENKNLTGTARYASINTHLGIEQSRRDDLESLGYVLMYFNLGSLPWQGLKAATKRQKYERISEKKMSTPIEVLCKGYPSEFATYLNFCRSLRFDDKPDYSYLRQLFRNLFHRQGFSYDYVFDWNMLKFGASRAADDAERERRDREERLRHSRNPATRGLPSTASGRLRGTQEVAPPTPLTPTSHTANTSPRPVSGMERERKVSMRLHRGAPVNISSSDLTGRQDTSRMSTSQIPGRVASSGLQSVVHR
# CHEK2 (human) = CHEK2 (human) (UniProt O96017)
# Sequence of CHEK2 (human) (O96017 whole entry, looked up): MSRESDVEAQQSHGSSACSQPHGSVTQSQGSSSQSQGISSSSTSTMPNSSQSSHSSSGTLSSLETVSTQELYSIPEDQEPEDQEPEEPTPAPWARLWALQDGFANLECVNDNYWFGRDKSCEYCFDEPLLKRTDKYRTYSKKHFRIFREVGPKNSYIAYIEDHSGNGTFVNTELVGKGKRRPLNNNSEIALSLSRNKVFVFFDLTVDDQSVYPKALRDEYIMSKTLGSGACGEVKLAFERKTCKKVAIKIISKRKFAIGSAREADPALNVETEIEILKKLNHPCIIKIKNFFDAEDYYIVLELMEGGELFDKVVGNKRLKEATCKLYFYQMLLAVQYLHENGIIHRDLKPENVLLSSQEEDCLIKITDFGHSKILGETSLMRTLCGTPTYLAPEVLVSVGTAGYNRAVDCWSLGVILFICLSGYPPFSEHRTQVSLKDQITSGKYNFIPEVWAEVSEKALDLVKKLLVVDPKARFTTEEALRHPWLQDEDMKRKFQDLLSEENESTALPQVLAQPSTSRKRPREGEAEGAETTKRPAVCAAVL
# PLK2 (human) = PLK2 (human) (UniProt Q9NYY3)
# CSNK2A1 (human) = CSNK2A1 (human) (UniProt P68400)
# STK25 (human) = STK25 (human) (UniProt O00506)
# HIPK3 (human) = HIPK3 (human) (UniProt Q9H422)
# STK33 (human) = STK33 (human) (UniProt Q9BYT3)
# FGFR2 (human) = FGFR2 (human) (UniProt P21802)
# MAP4K1 (human) = MAP4K1 (human) (UniProt Q92918)
# TEC (human) = TEC (human) (UniProt P42680)
# ERBB3 (human) = ERBB3 (human) (UniProt P21860)
# SIK2 (human) = SIK2 (human) (UniProt Q9H0K1)
# MAPK12 (human) = MAPK12 (human) (UniProt P53778)
# [1] = tested on: LRRK2 (human), Q5S007 [G2019S]
# Sequence of LRRK2 (human), Q5S007 [G2019S] (Q5S007 whole entry G2019S, looked up): as the sequence (Q5S007 whole entry, looked up) above, with G2019S counted along it
# BMPR2 (human) = BMPR2 (human) (UniProt Q13873)
# Sequence of CLK1 (human) (P49759 whole entry, looked up): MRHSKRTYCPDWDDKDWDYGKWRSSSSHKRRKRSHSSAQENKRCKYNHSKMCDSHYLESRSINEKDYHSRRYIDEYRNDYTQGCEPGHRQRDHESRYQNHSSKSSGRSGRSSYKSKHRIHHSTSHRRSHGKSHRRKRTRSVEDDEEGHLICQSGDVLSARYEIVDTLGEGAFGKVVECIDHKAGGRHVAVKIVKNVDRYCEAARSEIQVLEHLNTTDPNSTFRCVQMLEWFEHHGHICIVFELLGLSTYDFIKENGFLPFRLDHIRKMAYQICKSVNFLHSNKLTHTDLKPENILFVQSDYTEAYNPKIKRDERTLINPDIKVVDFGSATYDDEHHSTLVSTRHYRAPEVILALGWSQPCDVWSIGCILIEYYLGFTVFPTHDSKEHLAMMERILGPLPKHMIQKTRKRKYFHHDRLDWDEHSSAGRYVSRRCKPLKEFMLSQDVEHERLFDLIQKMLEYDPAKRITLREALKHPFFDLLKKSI
# Sequence of SRC (human) (P12931 whole entry, looked up): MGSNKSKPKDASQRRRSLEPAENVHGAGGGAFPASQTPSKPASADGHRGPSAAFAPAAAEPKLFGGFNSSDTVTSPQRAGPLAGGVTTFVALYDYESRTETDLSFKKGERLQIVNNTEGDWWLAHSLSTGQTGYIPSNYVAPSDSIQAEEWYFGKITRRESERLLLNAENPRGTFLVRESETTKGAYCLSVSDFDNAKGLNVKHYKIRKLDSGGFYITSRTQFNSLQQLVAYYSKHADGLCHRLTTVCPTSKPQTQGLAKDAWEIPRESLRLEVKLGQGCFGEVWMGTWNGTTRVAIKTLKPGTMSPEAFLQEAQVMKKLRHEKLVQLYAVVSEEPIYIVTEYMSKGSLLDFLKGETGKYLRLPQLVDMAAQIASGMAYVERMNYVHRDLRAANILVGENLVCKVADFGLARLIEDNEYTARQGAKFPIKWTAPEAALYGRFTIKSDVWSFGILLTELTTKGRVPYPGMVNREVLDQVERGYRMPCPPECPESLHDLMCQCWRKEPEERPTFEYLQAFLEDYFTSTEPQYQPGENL
SMILES,"kinase still bound, per cent of control (DCLK2 (human)) [%]","kinase still bound, per cent of control (PRKAA2 (human)) [%]","kinase still bound, per cent of control (MYO3B (human)) [%]","kinase still bound, per cent of control (CLK1 (human)) [%]","kinase still bound, per cent of control (MAP3K13 (human)) [%]","kinase still bound, per cent of control (SRC (human)) [%]","kinase still bound, per cent of control (TESK1 (human)) [%]","kinase still bound, per cent of control (GRK7 (human)) [%]","kinase still bound, per cent of control (ULK3 (human)) [%]","kinase still bound, per cent of control (MST1R (human)) [%]","kinase still bound, per cent of control (TNNI3K (human)) [%]","kinase still bound, per cent of control (LRRK2 (human)) [%]","kinase still bound, per cent of control (ACVR2B (human)) [%]","kinase still bound, per cent of control (AXL (human)) [%]","kinase still bound, per cent of control (PIP4K2C (human)) [%]","kinase still bound, per cent of control (PRKACB (human)) [%]","kinase still bound, per cent of control (NIM1 (human)) [%]","kinase still bound, per cent of control (PTK6 (human)) [%]","kinase still bound, per cent of control (CDKL3 (human)) [%]","kinase still bound, per cent of control (STK17A (human)) [%]",also measured
O=c1[nH]c2ccccc2n1C1CCN(Cc2ccc(-c3nc4cc5[nH]cnc5cc4nc3-c3ccccc3)cc2)CC1,92,95,100,100,100,81,74,98,80,100,100,100,100,45,83,100,71,100,100,100,"kinase still bound, per cent of control (FYN (human)): 100%; kinase still bound, per cent of control (SYK (human)): 84%; kinase still bound, per cent of control (WEE2 (human)): 96%; kinase still bound, per cent of control (MAST1 (human)): 100%; kinase still bound, per cent of control (PIK3C2B (human)): 54%; kinase still bound, per cent of control (CSNK1D (human)): 18%; kinase still bound, per cent of control (CHEK2 (human)): 100%; kinase still bound, per cent of control (PLK2 (human)): 88%; kinase still bound, per cent of control (CSNK2A1 (human)): 96%; kinase still bound, per cent of control (STK25 (human)): 97%; kinase still bound, per cent of control (HIPK3 (human)): 87%; kinase still bound, per cent of control (STK33 (human)): 100%; kinase still bound, per cent of control (FGFR2 (human)): 100%; kinase still bound, per cent of control (MAP4K1 (human)): 51%; kinase still bound, per cent of control (TEC (human)): 100%; kinase still bound, per cent of control (ERBB3 (human)): 100%; kinase still bound, per cent of control (SIK2 (human)): 85%; kinase still bound, per cent of control (MAPK12 (human)): 98%; kinase still bound, per cent of control [1]: 100%; kinase still bound, per cent of control (BMPR2 (human)): 100%"
COc1cc2ncnc(Nc3cccc(Cl)c3)c2cc1OC,88,100,100,59,100,9.9,100,75,24,100,38,79,54,19,31,100,77,58,76,19,"kinase still bound, per cent of control (FYN (human)): 81%; kinase still bound, per cent of control (SYK (human)): 54%; kinase still bound, per cent of control (WEE2 (human)): 81%; kinase still bound, per cent of control (MAST1 (human)): 79%; kinase still bound, per cent of control (PIK3C2B (human)): 7.6%; kinase still bound, per cent of control (CSNK1D (human)): 54%; kinase still bound, per cent of control (CHEK2 (human)): 6.7%; kinase still bound, per cent of control (PLK2 (human)): 44%; kinase still bound, per cent of control (CSNK2A1 (human)): 19%; kinase still bound, per cent of control (STK25 (human)): 77%; kinase still bound, per cent of control (HIPK3 (human)): 54%; kinase still bound, per cent of control (STK33 (human)): 73%; kinase still bound, per cent of control (FGFR2 (human)): 99%; kinase still bound, per cent of control (MAP4K1 (human)): 93%; kinase still bound, per cent of control (TEC (human)): 100%; kinase still bound, per cent of control (ERBB3 (human)): 18%; kinase still bound, per cent of control (SIK2 (human)): 67%; kinase still bound, per cent of control (MAPK12 (human)): 100%; kinase still bound, per cent of control [1]: 67%; kinase still bound, per cent of control (BMPR2 (human)): 100%"
